{"source": "patent US8609810B2", "about": "“Methylglyoxal-scavenging compounds and their use for the prevention and treatment of pain and/or hyperalgesia” (Ruprecht-Karls-Universitat Heidelberg, priority 2009, dated 2013)", "key": {"[1]": {"test_system": "healthy wild-type mice", "test": "Exogenous methylglyoxal induces thermal hyperalgesia in vivo (hot plate)", "protocol": "Hyperalgesia was studied using the hot-plate assay with an electronically controlled hot-plate analgesia meter (Columbus Instructments, Columbus, Ohio) at 50° C.. Each mouse was removed from the hot plate when a jumping escape response occurred or hind paws were licked, or after a maximal cut-off time of 60 seconds. […] Three measurements were taken per animal at each of the specified time points and averaged. The difference in latency times between control and treated animals, was calculated as a measure of hyperalgesia. Healthy wild-type mice (Male; 10-12 weeks) were treated with various concentrations of methylglyoxal (0.7 μM-700 μM) by intravenous injection as 0.9% NaCl solution. Control groups were injected with 0.9% NaCl solution. After 3 hrs incubation time, hyperalgesia was assessed."}, "[2]": {"test": "Plasma methylglyoxal measurement after i.v. injection of MG (HPLC)", "format": "in vivo, mice", "settings": "male, wild-type, mouse, iv, 5 μg MG i.v., within 10 min, read-out: plasma MG levels", "protocol": "(B) 5 μg ([…]) MG was administered by i. v. injection as 0.9% NaCl solution to male healthy wild-type mice (10-12 weeks old) and MG-plasma concentrations were determined by HPLC at time point Oh, 10 min, 30 min, 1 h and 3 h. Data represent mean±SD (n=3 per time point).\n(§1) The concentration of methylglyoxal in mouse plasma samples was determined by derivatization with 1,2-diamino-4,5-dimethoxybenezene using a previously described method. Blood samples were drawn into EDTA containing tubes from the retrobulbar vessels at time of sacrifice and centrifuged (2000 g; 5 mins). Plasma was removed and acidified with 10% TCA (0.1 ml). Samples were either analyzed immediately or stored at −80° C."}, "[3]": {"molecular_target": "T1, glyoxalase-I (Mus musculus, UniProt Q9CPU0)", "T1 construct": "Healthy wild-type mice (Male); from tissue", "T1 sequence (Q9CPU0 2-184 limits assumed)": "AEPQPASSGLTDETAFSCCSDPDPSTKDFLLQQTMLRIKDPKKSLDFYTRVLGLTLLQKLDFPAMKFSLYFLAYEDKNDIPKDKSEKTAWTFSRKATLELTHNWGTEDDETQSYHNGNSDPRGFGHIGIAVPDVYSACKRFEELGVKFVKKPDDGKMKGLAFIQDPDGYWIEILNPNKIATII", "test": "In vivo inhibition of Glyoxalase I in healthy wild-type mice", "protocol": "(A) Inhibition of Glyoxalase I by the cell permeable inhibitor S-p-Bromobenzylglutathione Cyclopentyl diester in male healthy wild-type mice (10-12 weeks old). Hyperalgesia was assessed by the hot plate assay at day 0 before application of the inhibitor. Thereafter, consecutive assessments of thermal hyperalgesia were made at selected time points (black circles), at which some mice also were sacrificed and plasma isolated for the determination of MG concentration (open circles). Data represent mean±SD (n=3 per time point). Different approaches were utilized to verify the hypothesized threshold-dependent effect of the MG/glyoxalase-system on hyperalgesia.\n(§2) Hyperalgesia was studied using the hot-plate assay with an electronically controlled hot-plate analgesia meter (Columbus Instructments, Columbus, Ohio) at 50° C.. Each mouse was removed from the hot plate when a jumping escape response occurred or hind paws were licked, or after a maximal cut-off time of 60 seconds. […] Three measurements were taken per animal at each of the specified time points and averaged. The difference in latency times between control and treated animals, was calculated as a measure of hyperalgesia.\nas §1\nHealthy wild-type mice (Male; 10-12 weeks) were pretreated for 48 hrs with 50 μg/g (i.p) of the cell permeable Glyoxalase I inhibitor, S-p-Bromobenzylglutathioine Cyclopentyl diester. After 48 hrs, hyperalgesia was assessed. Mice were then treated every 2nd day for a period of 15 days, during which consecutive assessments of hyperalgesia were made. At selected time points, mice sacrificed, and plasma isolated for determination of methylglyoxal concentration."}, "[4]": {"test_system": "methylglyoxal-induced hyperalgesia in healthy wild-type mice", "test": "Methylglyoxal-induced hyperalgesia, hot-plate assay (in vivo scavenging of methylglyoxal)", "settings": "1 mg i.p., MG 70 μM, FIG. 6A", "protocol": "Healthy wildtype mice (10-12 weeks), were injected with 1 mg GERP (≡1.096×1015 Arg residues) or control peptide GEAP; i.p. 30 mins prior to injection with methylglyoxal (MG; 70 μM). Hyperalgesia was assessed 3 hrs after i.p injection by hot-plate assay. Data represent mean±SEM (N=10). GERP reduced methylglyoxal-induced hyperalgesia by ca. 60% in healthy wildtype mice, whereas the control peptide had no effect, showing that scavanging of methylglyoxal reduced hyperalgesia.\nas §2\nA synthetic peptide, GERP001, containing ten arginine residues per molecule act as an effective in vivo scavenger of methylglyoxal was designed in house and synthesized (GenWay Biotech, Inc. San Diego, Calif., USA). […] Hyperalgesia was assessed 3 hrs after administration of methylglyoxal."}, "[5]": {"test_system": "diabetes induced hyperalgesia in diabetic wild-type mice", "test": "Diabetes induced hyperalgesia, hot-plate assay in STZ-induced diabetic wild-type mice", "format": "in vivo", "protocol": "Diabetic wildtype mice (Male; 18 wks) were injected with either 1 mg GERP or GEAP i.p. Following 1 day of treatment with either peptide, treatment was discontinued, after which consecutive measurements of hyperalgesia were performed to determine biological half-life of the peptide. This was determined to be ca. 80 hrs. Data represent the mean±SEM (N=10), ***P<0.0001, **P<0.001, *P<0.05, NSP>0.05 vs. GERP or GEAP control at respective time point; 000P<0.0001, NSP>0.05 vs. day 0.\nDiabetes was induced by i.p. administration of STZ at 60 mg/kg, freshly dissolved in sterile sodium citrate (0.05M, pH4.5) on 6 subsequent days. Control animals received sodium citrate only. Diabetes was verified 16-25 days later by measurement of blood glucose levels in samples from the tail vein using ACCU-CHEK glucose sticks and a conventional Accutrend glucometer. In the first 2 weeks following the onset of diabetes, blood glucose was measured daily. If glucose levels occasionally recovered, an additional STZ injection was given on day 25-27. More than 90% of mice became diabetic within the first 4 weeks and were used throughout the experiment. As soon as blood glucose increased above 300 mg/dl, individual supplementation with 1-2 U Insulin Semilenta (40 U/ml) was started. Once glucose levels had stabilized, blood glucose was determined at least once a week for the first 2 months, and thereafter every second week. Tight blood glucose control kept individual blood glucose level stable throughout the experiments. At the end of the experiments, mice were sacrificed with CO2, and both sciatic nerves dissected, weighed and snap-frozen in liquid nitrogen.\nas §2\nTo determine the effect of GERP on diabetes induced hyperalgesia, STZ-induced diabetic wild-type mice (Male; 18 wks) were injected intraperitioneal with either 1 mg of GERP001 or GEAP. After 24 hrs, hyperalgesia was assessed by hotplate assay."}}, "note": "Where no end group is shown, it is not given here.", "data": [{"compound": "CC(=O)C=O", "note": "[MG, 2-oxo-propanal]", "values": [{"measurement": "persistence of MG-induced changes resulting in hyperalgesia", "setting": "[1]; after MG application, data not shown", "result": "more than 3 hours"}, {"measurement": "plasma MG level needed for dose-dependent hyperalgesia (threshold concentration)", "setting": "[1]; plasma MG at 15 min after MG application", "result": "exceeded 600 nM"}, {"measurement": "induction of heat hyperalgesia", "setting": "[1]; systemic (i.v.) MG, 3 h after MG injection, hot plate", "result": "significant and dose-dependent induction of heat hyperalgesia"}, {"measurement": "concentration at 10 min", "setting": "[2]", "result": "> 800", "unit": "nM"}]}, {"compound": "NC(CCC(=O)NC(CSCc1ccc(Br)cc1)C(=O)NCC(=O)OC1CCCC1)C(=O)OC1CCCC1", "note": "(stereo not drawn) [S-p-Bromobenzylglutathione Cyclopentyl diester]", "values": [{"measurement": "glyoxalase-I enzymatic activity", "setting": "[3]; 3 days after continuous inhibitor administration, injected every second day", "result": "fully inhibited"}, {"measurement": "MG plasma concentration", "setting": "[3]; 6 days after initiation of treatment", "result": "exceeded 600 nM"}, {"measurement": "thermal hyperalgesia", "setting": "[3]; 6 days after initiation of treatment, hot plate", "result": "significant thermal hyperalgesia"}]}, {"compound": "GEAP: a control peptide in which the arginine residues were substituted for alanine (HHHHHHGGGGGEPGEPGEPGEPGEPGEPGEPGEPGEPGEP; GEAP motif containing peptide)", "values": [{"measurement": "effect on thermal hyperalgesia in MG-treated healthy wild-type mice", "setting": "[4]", "result": "no effect"}, {"measurement": "effect on thermal hyperalgesia in diabetic mice", "setting": "[5]; mice after 8 weeks of diabetes with manifest hyperalgesia, 1 mg i.p., FIG. 6C", "result": "no effect"}]}, {"compound": "HHHHHHGGGGGERPGERPGERPGERPGERPGERPGERPGERPGERPGERP [GERP001]", "values": [{"measurement": "physiological / biological effective half-life", "setting": "[5]; diabetic mice, 1 mg i.p., after treatment discontinued, regression analysis, linear decay model", "result": "ca. 80 hrs"}, {"measurement": "biological effective half-life (preliminary experiments)", "setting": "[5]; preliminary experiments, data fitted to an exponential decay (R2=0.9734)", "result": "ca. 13 hrs"}, {"measurement": "half-life of the effect of a single injection", "setting": "[5]; single injection (1 mg)", "result": 80, "unit": "h"}]}]}
